Laboratory results taken from ChEMBL document CHEMBL1649257, “Rapid detection of a point mutation in the parC gene associated with decreased susceptibility to fluoroquinolones in Mycoplasma bovis” (2009).
Values after ≈ are worked out from the molar mass of the structure shown.

Legend:
Format in all cases: functional
Mycoplasmopsis bovis [1] = assay: Antimicrobial activity against Mycoplasma bovis isolate 4879 harboring GyrA 83Phe and ParC 84Asn mutant by broth microdilution method
Mycoplasmopsis bovis [2] = assay: Antimicrobial activity against Mycoplasma bovis isolate 962 harboring GyrA 83Phe and ParC 84Asn mutant by broth microdilution method
Mycoplasmopsis bovis [3] = assay: Antimicrobial activity against Mycoplasma bovis isolate 9771 harboring GyrA 83Phe and ParC 84Asn mutant by broth microdilution method
Mycoplasmopsis bovis [4] = assay: Antimicrobial activity against Mycoplasma bovis isolate 4925 harboring GyrA 83Ser and ParC 84Asn mutant by broth microdilution method
Mycoplasmopsis bovis [5] = assay: Antimicrobial activity against Mycoplasma bovis isolate 523 harboring GyrA 83Phe and ParC 84Asn mutant by broth microdilution method
Mycoplasmopsis bovis [6] = assay: Antimicrobial activity against Mycoplasma bovis isolate 4241 harboring GyrA 83Phe and ParC 84Asn mutant by broth microdilution method
Mycoplasmopsis bovis [7] = assay: Antimicrobial activity against Mycoplasma bovis isolate 4243 harboring GyrA 83Phe and ParC 84Asn mutant by broth microdilution method
Mycoplasmopsis bovis [8] = assay: Antimicrobial activity against Mycoplasma bovis isolate 1665 harboring GyrA 83Phe and ParC 84Asn mutant by broth microdilution method
Mycoplasmopsis bovis [9] = assay: Antimicrobial activity against Mycoplasma bovis isolate 8830 harboring GyrA 83Phe and ParC 84Asn mutant by broth microdilution method
Mycoplasmopsis bovis [10] = assay: Antimicrobial activity against Mycoplasma bovis isolate 3181 harboring GyrA 83Phe and ParC 84Asn mutant by broth microdilution method
Mycoplasmopsis bovis [11] = assay: Antimicrobial activity against Mycoplasma bovis isolate 1972 harboring GyrA 83Phe and ParC 84Asn mutant by broth microdilution method
Mycoplasmopsis bovis [12] = assay: Antimicrobial activity against Mycoplasma bovis isolate 1306 harboring GyrA 83Phe and ParC 84Asp mutant by broth microdilution method
Mycoplasmopsis bovis [13] = assay: Antimicrobial activity against Mycoplasma bovis isolate 3374 harboring GyrA 83Phe and ParC 84Asp mutant by broth microdilution method
Mycoplasmopsis bovis [14] = assay: Antimicrobial activity against Mycoplasma bovis isolate 2458 harboring GyrA 83Phe and ParC 84Asp mutant by broth microdilution method
Mycoplasmopsis bovis [15] = assay: Antimicrobial activity against Mycoplasma bovis isolate 3036 harboring GyrA 83Phe and ParC 84Asp mutant by broth microdilution method
Mycoplasmopsis bovis [16] = assay: Antimicrobial activity against Mycoplasma bovis isolate 5848 harboring GyrA 83Phe and ParC 84Asp mutant by broth microdilution method
Mycoplasmopsis bovis [17] = assay: Antimicrobial activity against Mycoplasma bovis isolate 2643 harboring GyrA 83Phe and ParC 84Asp mutant by broth microdilution method
Mycoplasmopsis bovis [18] = assay: Antimicrobial activity against Mycoplasma bovis isolate 3179 harboring GyrA 83Phe and ParC 84Asp mutant by broth microdilution method
Mycoplasmopsis bovis [19] = assay: Antimicrobial activity against Mycoplasma bovis isolate 77 harboring GyrA 83Phe and ParC 84Asp mutant by broth microdilution method
Mycoplasmopsis bovis [20] = assay: Antimicrobial activity against Mycoplasma bovis isolate 170 harboring GyrA 83Ser and ParC 84Asp mutant by broth microdilution method
Mycoplasmopsis bovis [21] = assay: Antimicrobial activity against Mycoplasma bovis isolate 2029 harboring GyrA 83Phe and ParC 84Asp mutant by broth microdilution method
Mycoplasmopsis bovis [22] = assay: Antimicrobial activity against Mycoplasma bovis isolate 7043 harboring GyrA 83Phe and ParC 84Asp mutant by broth microdilution method
Mycoplasmopsis bovis [23] = assay: Antimicrobial activity against Mycoplasma bovis isolate 7910 harboring GyrA 83Ser and ParC 84Asp mutant by broth microdilution method
Mycoplasmopsis bovis [24] = assay: Antimicrobial activity against Mycoplasma bovis isolate 1416 harboring GyrA 83Phe and ParC 84Asp mutant by broth microdilution method
Mycoplasmopsis bovis [25] = assay: Antimicrobial activity against Mycoplasma bovis isolate 8934 harboring GyrA 83Ser and ParC 84Asp mutant by broth microdilution method
Mycoplasmopsis bovis [26] = assay: Antimicrobial activity against Mycoplasma bovis isolate 6226 harboring GyrA 83Ser and ParC 84Asp mutant by broth microdilution method
Mycoplasmopsis bovis [27] = assay: Antimicrobial activity against Mycoplasma bovis isolate 476-2 harboring GyrA 83Ser and ParC 84Asp mutant by broth microdilution method
Mycoplasmopsis bovis [28] = assay: Antimicrobial activity against Mycoplasma bovis isolate 9603 harboring GyrA 83Ser and ParC 84Asp mutant by broth microdilution method
Mycoplasmopsis bovis [29] = assay: Antimicrobial activity against Mycoplasma bovis isolate 6099 harboring GyrA 83Ser and ParC 84Asp mutant by broth microdilution method
Mycoplasmopsis bovis [30] = assay: Antimicrobial activity against Mycoplasma bovis isolate 9249 harboring GyrA 83Ser and ParC 84Asp mutant by broth microdilution method
Mycoplasmopsis bovis [31] = assay: Antimicrobial activity against Mycoplasma bovis isolate H harboring GyrA 83Ser and ParC 84Asp mutant by broth microdilution method
Mycoplasmopsis bovis [32] = assay: Antimicrobial activity against Mycoplasma bovis isolate 2E harboring GyrA 83Ser and ParC 84Asp mutant by broth microdilution method
Mycoplasmopsis bovis [33] = assay: Antimicrobial activity against Mycoplasma bovis isolate 2D harboring GyrA 83Ser and ParC 84Asp mutant by broth microdilution method
Mycoplasmopsis bovis [34] = assay: Antimicrobial activity against Mycoplasma bovis isolate K harboring GyrA 83Ser and ParC 84Asp mutant by broth microdilution method
Mycoplasmopsis bovis [35] = assay: Antimicrobial activity against Mycoplasma bovis isolate 5180 harboring GyrA 83Ser and ParC 84Asp mutant by broth microdilution method
Mycoplasmopsis bovis [36] = assay: Antimicrobial activity against Mycoplasma bovis isolate 4554 harboring GyrA 83Ser and ParC 84Asp mutant by broth microdilution method
Mycoplasmopsis bovis [37] = assay: Antimicrobial activity against Mycoplasma bovis isolate 3222 harboring GyrA 83Ser and ParC 84Asp mutant by broth microdilution method
Mycoplasmopsis bovis [38] = assay: Antimicrobial activity against Mycoplasma bovis isolate 111-2 harboring GyrA 83Ser and ParC 84Asp mutant by broth microdilution method
Mycoplasmopsis bovis [39] = assay: Antimicrobial activity against Mycoplasma bovis isolate 2670 harboring GyrA 83Ser and ParC 84Asp mutant by broth microdilution method
Mycoplasmopsis bovis [40] = assay: Antimicrobial activity against Mycoplasma bovis isolate 8998 harboring GyrA 83Ser and ParC 84Asp mutant by broth microdilution method
Mycoplasmopsis bovis [41] = assay: Antimicrobial activity against Mycoplasma bovis isolate 861 harboring GyrA 83Ser and ParC 84Asp mutant by broth microdilution method
Mycoplasmopsis bovis [42] = assay: Antimicrobial activity against Mycoplasma bovis isolate PG45 harboring GyrA 83Ser and ParC 84Asp mutant by broth microdilution method
Mycoplasmopsis bovis [43] = assay: Antimicrobial activity against Mycoplasma bovis isolate 330 harboring GyrA 83Ser and ParC 84Asp mutant by broth microdilution method

`CCN1CCN(c2cc3c(cc2F)c(=O)c(C(=O)O)cn3C2CC2)CC1` [ENROFLOXACIN] showed an MIC (Mycoplasmopsis bovis [1]) of 5 µg/mL (≈ 13.9 µM), an MIC (Mycoplasmopsis bovis [2]) of 5 µg/mL (≈ 13.9 µM) and an MIC (Mycoplasmopsis bovis [3]) of 5 µg/mL (≈ 13.9 µM). The MIC (Mycoplasmopsis bovis [4]) was 2.5 µg/mL (≈ 6.96 µM), the MIC (Mycoplasmopsis bovis [5]) was 2.5 µg/mL (≈ 6.96 µM) and the MIC (Mycoplasmopsis bovis [6]) was 2.5 µg/mL (≈ 6.96 µM). It also gave an MIC (Mycoplasmopsis bovis [7]) of 2.5 µg/mL (≈ 6.96 µM), an MIC (Mycoplasmopsis bovis [8]) of 2.5 µg/mL (≈ 6.96 µM) and an MIC (Mycoplasmopsis bovis [9]) of 5 µg/mL (≈ 13.9 µM). For the same molecule, the MIC (Mycoplasmopsis bovis [10]) was 2.5 µg/mL (≈ 6.96 µM), the MIC (Mycoplasmopsis bovis [11]) was 2.5 µg/mL (≈ 6.96 µM) and the MIC (Mycoplasmopsis bovis [12]) was 1.25 µg/mL (≈ 3.48 µM). The MIC (Mycoplasmopsis bovis [13]) was 1.25 µg/mL (≈ 3.48 µM), the MIC (Mycoplasmopsis bovis [14]) was 1.25 µg/mL (≈ 3.48 µM) and the MIC (Mycoplasmopsis bovis [15]) was 1.25 µg/mL (≈ 3.48 µM). For the same molecule, the MIC (Mycoplasmopsis bovis [16]) was 1.25 µg/mL (≈ 3.48 µM), the MIC (Mycoplasmopsis bovis [17]) was 1.25 µg/mL (≈ 3.48 µM) and the MIC (Mycoplasmopsis bovis [18]) was 0.63 µg/mL (≈ 1.75 µM). For the same molecule, the MIC (Mycoplasmopsis bovis [19]) was 0.63 µg/mL (≈ 1.75 µM), the MIC (Mycoplasmopsis bovis [20]) was 0.63 µg/mL (≈ 1.75 µM) and the MIC (Mycoplasmopsis bovis [21]) was 0.32 µg/mL (≈ 0.89 µM). For the same molecule, the MIC (Mycoplasmopsis bovis [22]) was 0.32 µg/mL (≈ 0.89 µM), the MIC (Mycoplasmopsis bovis [23]) was 0.32 µg/mL (≈ 0.89 µM) and the MIC (Mycoplasmopsis bovis [24]) was 0.32 µg/mL (≈ 0.89 µM). It also gave an MIC (Mycoplasmopsis bovis [25]) of 0.32 µg/mL (≈ 0.89 µM), an MIC (Mycoplasmopsis bovis [26]) of 0.32 µg/mL (≈ 0.89 µM) and an MIC (Mycoplasmopsis bovis [27]) of 0.16 µg/mL (≈ 0.445 µM). For the same molecule, the MIC (Mycoplasmopsis bovis [28]) was 0.16 µg/mL (≈ 0.445 µM), the MIC (Mycoplasmopsis bovis [29]) was 0.16 µg/mL (≈ 0.445 µM) and the MIC (Mycoplasmopsis bovis [30]) was 0.16 µg/mL (≈ 0.445 µM). The MIC (Mycoplasmopsis bovis [31]) was 0.16 µg/mL (≈ 0.445 µM), the MIC (Mycoplasmopsis bovis [32]) was 0.16 µg/mL (≈ 0.445 µM) and the MIC (Mycoplasmopsis bovis [33]) was 0.16 µg/mL (≈ 0.445 µM). The MIC (Mycoplasmopsis bovis [34]) was 0.16 µg/mL (≈ 0.445 µM), the MIC (Mycoplasmopsis bovis [35]) was 0.16 µg/mL (≈ 0.445 µM) and the MIC (Mycoplasmopsis bovis [36]) was 0.16 µg/mL (≈ 0.445 µM). For the same molecule, the MIC (Mycoplasmopsis bovis [37]) was 0.16 µg/mL (≈ 0.445 µM), the MIC (Mycoplasmopsis bovis [38]) was 0.16 µg/mL (≈ 0.445 µM) and the MIC (Mycoplasmopsis bovis [39]) was 0.08 µg/mL (≈ 0.223 µM). For the same molecule, the MIC (Mycoplasmopsis bovis [40]) was 0.08 µg/mL (≈ 0.223 µM), the MIC (Mycoplasmopsis bovis [41]) was 0.08 µg/mL (≈ 0.223 µM) and the MIC (Mycoplasmopsis bovis [42]) was 0.16 µg/mL (≈ 0.445 µM). The MIC (Mycoplasmopsis bovis [43]) was 0.08 µg/mL (≈ 0.223 µM).
